Where a name gives a salt, the structure may show the parent alone.
Tests used:
[1] = biological target: T1, human ProRS (prolyl tRNA synthetase moiety of glutamyl prolyl tRNA synthetase) (Homo sapiens, UniProt P07814); experiment: Assay for inhibitors of prolyl tRNA synthetase activity (ProRS assay, labeled proline incorporation); type: biochemical; conditions: ProRS 20 nM, compounds 10 μM to 0.5 nM, 10 min at 37° C.; read-out: EPR IC50
T1 construct: The prolyl tRNA synthetase moiety (ProRS) in the cDNA of glutamyl prolyl tRNA synthetase was subcloned; 6xHis (N, cleaved yes); made in house; host or cells: E. coli BL21 (DE3)
T1 sequence (P07814 1007-1512 limits assumed): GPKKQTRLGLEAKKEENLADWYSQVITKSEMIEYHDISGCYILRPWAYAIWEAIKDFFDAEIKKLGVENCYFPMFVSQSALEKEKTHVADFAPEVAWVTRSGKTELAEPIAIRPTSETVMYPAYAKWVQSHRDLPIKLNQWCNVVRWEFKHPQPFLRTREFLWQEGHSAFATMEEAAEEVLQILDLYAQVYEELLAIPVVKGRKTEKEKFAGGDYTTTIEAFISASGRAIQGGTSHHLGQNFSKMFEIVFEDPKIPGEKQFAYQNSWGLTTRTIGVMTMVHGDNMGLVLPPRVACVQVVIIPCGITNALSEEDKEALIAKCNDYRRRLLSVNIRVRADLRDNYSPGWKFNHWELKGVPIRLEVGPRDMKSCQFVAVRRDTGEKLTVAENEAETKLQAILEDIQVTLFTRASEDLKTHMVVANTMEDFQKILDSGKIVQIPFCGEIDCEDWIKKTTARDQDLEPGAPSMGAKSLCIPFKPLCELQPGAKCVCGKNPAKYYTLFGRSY
Text: In order to establish the activities of the compounds highlighted above, we determined extent of inhibition of prolyl tRNA synthetase activity in dose response curves to obtain IC50 values.
The prolyl tRNA synthetase moiety (ProRS) in the cDNA of glutamyl prolyl tRNA synthetase was subcloned, tagged with a single biotin, purified and used in the assay. Briefly, human ProRS with a 6× N-terminal His tag in pET28N with TVMV BioP was transformed in E. coli BL21 (DE3) cells, selected, overexpressed and purified using a Ni Seph 6 FF XK 16/20 column in the first stage. Ni-NTA eluates were pooled and treated with TVMV protease, and biotinylated using d-Biotin, MgCl2, ATP and the BirA enzyme. This was rerun through a Ni column as before. The eluates were further enriched and purified using membrane ultrafiltration and a SuperDex 200 XK 16/60 column, and peak fractions were confirmed by SDS-PAGE prior to protein amount determination, aliquoting and storage at −80° C.
ProRS assay was performed in 96 well plates in a final reaction volume of 20 μl, using staggered additions of Tris-Cl (pH 7.5, 60 mM), dithiothreitol (2 mM), ATP (5 mM, pH 7.0), MgCl2 6 mM), ProRS (20 nM, with pre-determined active fraction range) and bovine tRNA (20 μg). Controls and compounds, at various concentrations (10 μM to 0.5 nM), were incubated on ice with enzyme mix for 15 min followed by addition of proline (non-labeled and labeled, 3.96 and 1.04 μM (1 μCi) respectively) to initiate the reaction. Reaction was carried out for 10 min at 37° C. and terminated by addition of TCA (10%, 100 μl). Reaction mix was collected on a Whatman GF/B filter using a vacuum filtration manifold. This filter was washed 3 times with 5% TCA followed by 2 washes with ethanol, air dried, and read using a liquid scintillation counter (TopCount NXT) using MicroScint O. IC50 values were calculated and analyzed using ToolSet (4-parameter plot) and depicted herein.

Rat hepatocytes = experiment: GSH trapping assay; type: in vitro ADME; conditions: 30 μM, 24 hr incubation, LC-MS detection of GSH adducts
Protocol: Rat hepatocytes were isolated from male Sprague-Dawley rats (Vivo Biotech Ltd, HYD, India), weighing 230 to 280 g by the two step collagenase perfusion method (seglen, 1976; Berry M N and Friend D S.1969). Rat hepatocytes were cultured in Dulbecco's Modified Eagle's Medium (DMEM, Gibco®, USA) supplemented with 10^−6M dexamethasone (Gibco®), 5% fetal bovine serum (Gibco®) and cocktail-A mix (CM3000, Gibco®) containing HEPES buffer (PH 7.4), GlutaMAX™, human recombinant insulin, penicillin and streptomycin. Initial cell viability assessed by Trypanblue stain 0.4% (Sigma, UK) and viability more than 80% were considered for culturing. Hepatocytes were seeded in 96 well type-I collagen coated plates (Gibco®) at 4×10^4 cells/well in 100 μL of the culture medium and incubated at 37° C. in 5% CO2 and 95% relative humidity (RH) for 4 hr of cell attachment.
After 4hr incubation, rat hepatocytes were washed twice with pre-warmed (37° C.) DMEM incubation medium supplemented with 10^−7M dexamethasone and cell maintenance cocktail-B (CM4000, Gibco®) solution to remove unattached cells. Post washing hepatocytes were treated with test and reference compounds in incubation medium at single concentration (30 μM) in duplicate and incubate further for 24 hr at 37° C. with 5% CO2 and 95% RH. The final concentration of DMSO in medium was 0.5%.
Post 24 hr incubation, hepatocyte samples were quenched with equal volumes of acetonitrile containing 0.1% formic acid followed by vortex mix, sonicate and centrifuge at 12000 rpm at room temperature for 5 min. Supernatant samples were analyzed for GSH adducts on a C18 reverse-phase column (Xbridge™ Shield, C18, 4.6×150 mm, 3.5 μm) with solvent A (10 mM ammonium formate and 0.1% formic acid/water) and solvent B (0.1% formic acid/acetonitrile).
The column was eluted with 5% B for 5 min and then with a linear gradient to 20% B over 10 min and it was maintained upto 15 min, then it was increased linearly to 40% B upto 27 min and then increase to 90% B upto 29 min, and then equilibrate back the column to 5% B upto 33 min at a flow rate of 0.6 ml/min. The column effluent was directed into the ESI source of a LTQ Velos Orbitrap mass spectrometer (Thermo Fisher Scientific, San Jose, Calif.). The ESI conditions were as follows: sheath gas flow rate, 40 arbitrary units; auxiliary gas, 30 arbitrary units; spray voltage, 4.5 kV; capillary temperature, 230° C.; capillary voltage, 30 V; and tube lens offset, 25 V. Data were acquired in positive ion mode using Xcalibur software (Thermo Fisher Scientific) with one full scan followed by two data-dependent scans of the most intense and the second most intense ions. During the data interpretation the characteristic fragments of neutral loss of glycine (75.0320 Da), pyroglutamic acid (129.0426 Da) and loss of neutral moiety GSH (307.0838 Da) and/or a specific fragment of (GSH+H)^+ (m/z 308.0911) were monitored. Finally, the fragments ions with m/z e.g. 179.0485, 177.0328 and 162.0219 Da, which were derived from the glutathione moiety were used to report GSH positive results.

| Compound | IC50 [1] | GSH adduct formation (Rat hepatocytes) |
| --- | --- | --- |
| Cc1cc(C)c2ncn(CC(=O)C[C@H]3NCCC[C@@H]3O)c(=O)c2n1 [Example 1, 3-{3-[(2R,3S)-3-Hydroxypiperidin-2-yl]-2-oxopropyl}-6,8-dimethylpyrido[3,2-d]pyrimidin-4(3H)-one dihydrochloride] | 28 nM | Negative |
| Cc1cc(Cl)cn2c(=O)c(NC(=O)C[C@H]3NCCC[C@@H]3O)cnc12.Cl [Example 39, N-(7-Chloro-9-methyl-4-oxo-4H-pyrido [1,2-a]pyrimidin-3-yl)-2-[(2R, 3S)-3-hydroxypiperidin-2-yl]acetamide hydrochloride] | 301 nM | Negative |
| Cc1cc(-c2cccc(F)c2)nc2c(=O)n(CC(=O)C[C@H]3NCCC[C@@H]3O)cnc12 [Example 14, 6-(3-fluorophenyl)-3{3-[(2R,3S)-3-hydroxypiperidin-2-yl]-2-oxopropyl}-8-methylpyrido[3,2-d]pyrimidin-4(3H)-one dihydrochloride] | 7 nM |  |
| Cc1cc(C(F)(F)F)nc2c(=O)n(C[C@@H](O)C[C@H]3NCCC[C@@H]3O)cnc12 [Example 31, 3-{(S)-2-hydroxy-3-[(2R,3S)-3-hydroxypiperidin-2-yl]propyl}-8-methyl-6-(trifluoromethyl)pyrido[3,2-d]pyrimidin-4(3H)-one bis(2,2,2-trifluoroacetic acid)] | 416 nM | Negative |
| Cc1cc(C)c2ncn(C[C@@H](O)C[C@H]3NCCC[C@@H]3O)c(=O)c2n1 [Example 21, 3-{(S)-2-hydroxy-3-[(2R,3S)-3-hydroxypiperidin-2-yl]propyl}-6,8-dimethylpyrido[3,2-d]pyrimidin-4(3H)-one dihydrochloride] | 491 nM |  |
| Cc1cc(-c2cccc(C(F)(F)F)c2)nc2c(=O)n(C[C@@H](O)C[C@H]3NCCC[C@@H]3O)cnc12 [Example 28, 3-{(2S)-2-hydroxy-3-[(2R,3S)-3-hydroxy-2-piperidyl]propyl}-8-methyl-6-[3-(trifluoromethyl)phenyl]pyrido[3,2-d]pyrimidin-4-one;dihydrochloride] | 27 nM |  |
| Cc1cc(C(F)(F)F)nc2c(=O)n(CC(=O)C[C@H]3NCCC[C@@H]3O)cnc12 [Example 13, 3-{3-[(2R,3S)-3-hydroxypiperidin-2-yl]-2-oxopropyl}-8-methyl-6-(trifluoromethyl)pyrido[3,2-d]pyrimidin-4(3H)-one dihydrochloride] | 17 nM |  |
| O=C(C[C@@H]1CCCCN1)Cn1cnc2ccncc2c1=O [Example 20, (S)-3-{2-oxo-3-[piperidin-2-yl-propyl-pyrido(4,3-d)]}pyrimidin-4(3H)-one-dihydrochloride] | 60 nM |  |
| O=c1c2cnccc2ncn1C[C@@H](O)C[C@H]1NCC[C@@H]1O [Example 38, 3-{(S)-2-hydroxy-3-[(2R,3S)-3-hydroxypyrrolidin-2-yl]-propyl}pyrido[4,3-d]pyrimidin-4(3H)-one bis (2,2,2-trifluoroacetic acid)] | 2300 nM |  |
| Cc1cc(C)c2ncn(CC(=O)C[C@@H]3CCCCN3)c(=O)c2n1.Cl.Cl [Example 10, (S)-6,8-dimethyl-3-(2-oxo-3-(piperidin-2-yl)propyl)pyrido[3,2-d]pyrimidin-4(3H)-one dihydrochloride] | 773 nM | Negative |
| Cc1cc(C2CC2)nc2c(=O)n(C[C@@H](O)C[C@H]3NCCC[C@@H]3O)cnc12 [Example 30, 6-cyclopropyl-3-{(S)-2-hydroxy-3-[(2R,3S)-3-hydroxypiperidin-2-yl]propyl}-8-methylpyrido[3,2-d]pyrimidin-4(3H)-one dihydrochloride] | 425 nM |  |
| Cc1cc(-c2cccc(F)c2)cn2c(=O)c(NC(=O)C[C@H]3NCCC[C@@H]3O)cnc12 [Example 40, N-(7-(3-fluorophenyl)-9-methyl-4-oxo-4H-pyrido[1,2-a]pyrimidin-3-yl)-2-((2R,3S)-3-hydroxypiperidin-2-yl)acetamide 2,2,2-trifluoroacetic acid] | 2730 nM |  |
| O=C(C[C@H]1NCCC[C@@H]1O)Cn1cnc2cccnc2c1=O [Example 2, 3-{3-[(2R,3S)-3-Hydroxypiperidin-2-yl]-2-oxopropyl}pyrido[3,2-d]pyrimidin-4(3H)-one dihydrochloride] | 15 nM | Negative |
| Cc1cc(-c2cccc(Cl)c2)nc2c(=O)n(C[C@@H](O)C[C@H]3NCCC[C@@H]3O)cnc12 [Example 33, 6-(3-chlorophenyl)-3-{(S)-2-hydroxy-3-[(2R,3S)-3-hydroxypiperidin-2-yl]propyl}-8-methylpyrido[3,2-d]pyrimidin-4(3H)-one dihydrochloride] | 23 nM |  |
| Cc1cc(Cl)cc2c(=O)n(CC(=O)CC3CCCCN3)cnc12 (stereo not shown) [Example 4, 6-Chloro-8-methyl-3-[2-oxo-3-(piperidin-2-yl)propyl]quinazolin-4(3H)-one hydrochloride] | 807 nM |  |
| O=c1c2nc(-c3cccc(C(F)(F)F)c3)ccc2ncn1C[C@@H](O)C[C@H]1NCCC[C@@H]1O [Example 23, 3-{(S)-2-Hydroxy-3-[(2R,3S)-3-hydroxypiperidin-2-yl]propyl}-6-[3-(trifluoromethyl)phenyl]pyrido[3,2-d]pyrimidin-4(3H)-one dihydrochloride] | 28 nM | Negative |

From US20210122746A1, “FEBRIFUGINE DERIVATIVES” (BRISTOL-MYERS SQUIBB COMPANY, priority 2017, published 2021)
